Assay results: the METLIN SMRT retention time set (Domingo-Almenara et al. 2019)

Assay: gradient 5% acetonitrile 3 min, to 50% in 2 min, to 85% in 15 min, held 3 min, 100 µL/min
Details: column: Zorbax Extend-C18 2.1 x 50 mm; eluents: water / acetonitrile, 0.1% formic acid
Summary of the method: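 In both positive and negative ionization mode, a quadrupole time-of-flight mass spectrometer coupled to HPLC analyzed pure standards run in mixtures of ~100 molecules. The Zorbax Extend-C18 column (2.1 × 50 mm, 1.8 μm) was operated at 100 μL/min with water and acetonitrile, each containing 0.1% formic acid. The dead volume was 40 μL and the dwell volume 900 μL. Retention time came from adduct peaks that were computationally picked and individually inspected by hand.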

In the case of `COC(=O)c1sccc1NC(=O)N1CCCn2nc(-c3cccs3)cc2C1`, the RP-LC retention time is reported as 984 s.
Work on `COCCC(=O)N1CCCN(C2=NS(=O)(=O)C(c3ccc(C)cc3)=C2C)CC1` yielded an RP-LC retention time of 720 s.
Compound `COCCN1CCC2(CC1)CN(Cc1ccccc1OC(C)C)Cc1ccccc1O2` has an RP-LC retention time of 611 s.
For `O=C(NC1CCN(c2cc(-c3ccccc3)[nH]n2)C1)c1ccc2cc[nH]c2c1` (stereo unspecified), the RP-LC retention time was 792 s.
With `C=CCN1C(=O)COc2ccc(-c3nc(NC(=O)CCc4ccccc4)sc3C)cc21` the RP-LC retention time was 1050 s.
Compound `COc1cccc(OC)c1C(=O)N1CCCC1c1c(C)noc1C` (stereo unspecified) has an RP-LC retention time of 665 s.
For `CC(Oc1ccccc1F)C(=O)Nc1ccc(-c2nc(-c3ccc(F)cc3)no2)cc1` (stereo unspecified), the RP-LC retention time was 1260 s.
With `COc1ccc(NC(=O)CCc2cccc3[nH]ccc23)cc1OC` the RP-LC retention time was 755 s.
`CCC1Oc2ccc(S(=O)(=O)N3CCC(C(=O)Nc4cc(C)ccc4OC)CC3)cc2NC1=O` (stereo unspecified) showed an RP-LC retention time of 936 s.
Compound `O=C(NCc1ccccc1)C1CCCN(c2nc3ccsc3c(=O)n2Cc2ccccc2)C1` (stereo unspecified) has an RP-LC retention time of 902 s.
In the case of `CC1CN(C(=O)c2ccc(C#N)cc2)c2ccccc2O1` (stereo unspecified), the RP-LC retention time is reported as 914 s.
Compound `CCc1cc(=O)n(CC(=O)NCc2ccc(C)cc2)c(N2CCOCC2)n1` has an RP-LC retention time of 747 s.
`CCc1nnc(-c2cn(CC(=O)Nc3cc(Cl)c(OC)cc3OC)c3ccccc23)o1` gave an RP-LC retention time of 916 s.
Compound `Cc1cccc2c(C(=O)NCC(C)C)c3c(nc12)CCC3` has an RP-LC retention time of 688 s.
With `CCCc1cc(N2CCN(C(=O)C3CCC3)CC2)nc2nnc(C)n12` the RP-LC retention time was 614 s.
In the case of `CC(C)C(=O)Nc1ccc2ncnc(N3CCCC3)c2c1`, the RP-LC retention time is reported as 591 s.
For `COC(=O)c1ccc(C(=O)OC)c(NC(=O)N2CCC(CN3CC(C)CC(C)C3)CC2)c1` (stereo unspecified), the RP-LC retention time was 722 s.
Compound `Cc1ccc(NC(=O)N2C[C@@H]3C[C@H](NS(=O)(=O)c4ccccc4)[C@H]2C3)c(C)c1` has an RP-LC retention time of 832 s.
In the case of `O=C(NCCCN1CCC(Cc2ccccc2)CC1)C1CCCN(S(=O)(=O)N2CCCCC2)C1` (stereo unspecified), the RP-LC retention time is reported as 745 s.
`Cc1cc(C)c(S(=O)(=O)N2CCc3nc[nH]c3C2)cc1C` gave an RP-LC retention time of 643 s.
`CCOc1cc(CNC(=O)C2CCCN(c3nc4ccccc4n(CC)c3=O)C2)ccc1OC` (stereo unspecified) showed an RP-LC retention time of 936 s.
With `COc1ccc(S(=O)(=O)Nc2ccc(-c3cn4ccc(C)nc4n3)cc2)c(C)c1C` the RP-LC retention time was 715 s.
With `Cc1oc(C2CCN(C(=O)Cc3ccccc3Cl)CC2)nc1C(=O)N1CCOCC1` the RP-LC retention time was 716 s.
With `Cc1ccc2[nH]cc(CCNC(=O)C3CCN(S(=O)(=O)c4ccc5c(ccn5C)c4)CC3)c2c1` the RP-LC retention time was 933 s.
With `Cc1ccc(NS(=O)(=O)c2cc3n(c2)CCCNC3=O)c(Cl)c1` the RP-LC retention time was 686 s.
`COc1ccc(S(=O)(=O)N2CCC(CN3CCC(C)CC3)CC2)cc1` gave an RP-LC retention time of 655 s.
For `Cc1nn(-c2ccccc2)c(C)c1S(=O)(=O)N1CCC(C(=O)NCCc2ccccc2)CC1`, the RP-LC retention time was 812 s.
`CN(CCCNC(=O)Cn1c(=O)c2cccn2c2ccccc21)Cc1ccccc1` showed an RP-LC retention time of 631 s.
In the case of `Fc1ccccc1CNc1cc(-n2cccn2)ncn1`, the RP-LC retention time is reported as 838 s.
In the case of `COc1ccc(-c2nnc(N3CCC(C(=O)Nc4ccc(OC)cc4OC)CC3)o2)cc1`, the RP-LC retention time is reported as 837 s.
`COC(=O)CCNC(=O)C1c2ccccc2C(=O)N(CC(C)C)C12CCCCC2` (stereo unspecified) gave an RP-LC retention time of 842 s.
In the case of `NS(=O)(=O)c1cccnc1Nc1ccc(Br)cc1`, the RP-LC retention time is reported as 913 s.
Compound `CCOC(=O)c1noc2nc(C)nc(NCCCN3CCN(c4cccc(C)c4)C(C)C3)c12` (stereo unspecified) has an RP-LC retention time of 739 s.
With `COc1cc(C2=NN(C(C)=O)C(c3ccncc3)O2)cc(OC)c1OC(C)=O` (stereo unspecified) the RP-LC retention time was 714 s.
In the case of `Cc1c(C(=O)N2CCCC2)cnn1-c1ccc(-c2nc(C3CC3)no2)cn1`, the RP-LC retention time is reported as 877 s.
With `COc1ccc(NC(=O)CN2CCc3[nH]c4c(C)cc(C)cc4c(=O)c3C2)cc1OC` the RP-LC retention time was 922 s.
Compound `CCOCCCNC(=O)N1CCC(c2cc(N)on2)CC1` has an RP-LC retention time of 601 s.
Work on `Cc1cn(C)c(CC(=O)NCc2cccs2)c1C(=O)O` yielded an RP-LC retention time of 693 s.
With `CCOC(=O)C1CCCN(C(=O)Cn2c3ccccc3c3cnn(C)c(=O)c32)C1` (stereo unspecified) the RP-LC retention time was 826 s.
`Cc1ccc(-c2nc3cnccn3c2NCCC(=O)NC(C)c2cccnc2)cc1` (stereo unspecified) gave an RP-LC retention time of 569 s.
For `CCc1ccc(NC(=O)N(C)CC2CCOC2)cc1` (stereo unspecified), the RP-LC retention time was 739 s.
Compound `O=S(=O)(c1ccc(-c2csc(Nc3cccc4ccccc34)n2)cc1)N1CCCCC1` has an RP-LC retention time of 1280 s.
Work on `Cc1cccc(C)c1Nc1c(-c2ccc(Cl)cc2)nc2ncccn12` yielded an RP-LC retention time of 919 s.
Compound `CCc1ccc(N2C(=O)CN(CCc3ccccc3F)[C@H]3CS(=O)(=O)C[C@H]32)cc1` has an RP-LC retention time of 904 s.
With `Cc1ccccc1Cn1cc(-c2ccncc2)cc1C(=O)NCc1ccccc1` the RP-LC retention time was 735 s.
For `CCn1c(=O)sc2cc(S(=O)(=O)N3CCC(C(=O)Nc4cc(C)cc(C)c4)CC3)ccc21`, the RP-LC retention time was 932 s.
Compound `CCNc1cc(C)nc(N2CCN(S(=O)(=O)c3ccc(-c4ccccc4)cc3)CC2)n1` has an RP-LC retention time of 829 s.
`CCCNC(=O)N1CCCCCC1CN1CCC(OC)CC1` (stereo unspecified) showed an RP-LC retention time of 604 s.
`Cc1noc(C)c1-c1ccc(S(=O)(=O)Nc2ccc(F)cc2)cc1` showed an RP-LC retention time of 904 s.
In the case of `COC(=O)c1cccc(C(=O)Nc2ccc(C)c(C)c2)n1`, the RP-LC retention time is reported as 910 s.
Work on `O=C(Nc1ccc(N2CCOCC2)cc1)C1CCCN(c2ccnc(-c3ccc(F)cc3)n2)C1` (stereo unspecified) yielded an RP-LC retention time of 649 s.
With `COc1ccc(-c2noc(-c3ccc(NC(=O)COc4ccc(Br)cc4)cc3)n2)cc1` the RP-LC retention time was 1280 s.
Compound `Cc1nc2cccnc2n1CC1CCCN(S(=O)(=O)c2ccc3c(c2)CCC3)C1` (stereo unspecified) has an RP-LC retention time of 765 s.
In the case of `COc1ccc(-c2nc3ccc(Cl)cn3c2Nc2ccccc2C)cc1`, the RP-LC retention time is reported as 832 s.
In the case of `CC1=CC(=O)C2=C(C)C[C@H](O)[C@H]3[C@H](C)C(=O)O[C@@H]3C12` (stereo partly specified), the RP-LC retention time is reported as 725 s.
In the case of `O=C(NCc1ccc2c(c1)OCO2)c1ccc2c(c1)N(Cc1ccccc1)C(=O)CO2`, the RP-LC retention time is reported as 857 s.
For `O=C(NC1CCCCC1)c1ccc2ncnc(N3CCCC3)c2c1`, the RP-LC retention time was 636 s.
Work on `Cc1ccc2c(c1)N(C(=O)C1CCN(S(=O)(=O)c3cccnc3)CC1)CCO2` yielded an RP-LC retention time of 823 s.
Work on `CCCNS(=O)(=O)c1c(C)sc(C)c1-c1cc(C(F)(F)F)on1` yielded an RP-LC retention time of 1130 s.
`O=C(NCCC1=CCCCC1)C1CCN(c2ncccc2S(=O)(=O)N2CCCCC2)CC1` showed an RP-LC retention time of 1080 s.
Work on `COc1ccc(N2CCN(C(=O)c3csc(-c4ccc(N5CCCC5)nc4)n3)CC2)cc1` yielded an RP-LC retention time of 651 s.
`O=C(CC1CCN(C(=O)NC2CCCCC2)CC1)N1CCN(c2ccccn2)CC1` gave an RP-LC retention time of 598 s.
`c1ccc(OCc2cn(CCC3CCCCN3)nn2)cc1` (stereo unspecified) showed an RP-LC retention time of 552 s.
Work on `Cc1cc(C)c(S(=O)(=O)N2CCC(c3noc(-c4ccccc4)n3)CC2)c(C)c1` yielded an RP-LC retention time of 1350 s.
For `Cc1ccc(C)c(NC(=O)Cn2c(=O)nc(N3CCC(C)CC3)c3ccccc32)c1`, the RP-LC retention time was 880 s.
For `CN(CC1CCOC1)C(=O)NCCc1ccccc1` (stereo unspecified), the RP-LC retention time was 650 s.
